Measured values reported in the supplement of paper PMC10307832.

Key:
Assay in all cases: relative viability (nuclei count vs DMSO), 5 days (fraction); higher = more cells survive
[1] = tested on: NCI-H596
Summary of the method: (§1)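 Lung cancer cell lines were pin-tool dosed in 1536-well plates on the day after seeding, with either a lone drug or a fixed anchor-drug dose plus five library-drug doses (not always all listed) in √10 steps. Nuclei were counted on 4× images after 5 days. Relative viability is the ratio of treated-well to vehicle-well nuclei counts, with each value a median of duplicate plates.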

[2] = tested on: COR-L23
Summary of the method: as §1

[3] = tested on: HCC-15
Summary of the method: as §1

[4] = tested on: LK-2
Summary of the method: as §1

[5] = tested on: HCC-44
Summary of the method: as §1

[6] = tested on: NCI-H1437
Summary of the method: as §1

[7] = tested on: NCI-H1975
Summary of the method: as §1

[8] = tested on: A-427
Summary of the method: as §1

[9] = tested on: SW 900
Summary of the method: as §1

[10] = tested on: NCI-H520
Summary of the method: as §1

[11] = tested on: COR-L 105
Summary of the method: as §1

[12] = tested on: NCI-H650
Summary of the method: as §1

[13] = tested on: EKVX
Summary of the method: as §1

[14] = tested on: HCC-827
Summary of the method: as §1

[15] = tested on: NCI-H838
Summary of the method: as §1

[16] = tested on: NCI-H1792
Summary of the method: as §1

[17] = tested on: NCI-H1666
Summary of the method: as §1

[18] = tested on: 201T
Summary of the method: as §1

[19] = tested on: SK-MES-1
Summary of the method: as §1

[20] = tested on: NCI-H522
Summary of the method: as §1

[21] = tested on: NCI-H23
Summary of the method: as §1

[22] = tested on: NCI-H441
Summary of the method: as §1

[23] = tested on: HARA
Summary of the method: as §1

[24] = tested on: LCLC-103H
Summary of the method: as §1

C[C@@H]1CN(CC(=O)Nc2ccc3c(c2)Cc2cccc(-c4cc(=O)cc(N5CCOCC5)o4)c2S3)C[C@H](C)O1 + Nc1ncn([C@H]2C[C@H](O)[C@@H](CO)O2)c(=O)n1 [Decitabine] (partner 2 µM)
relative viability ([1]; first compound 0.04 µM): 1.01
relative viability ([1]; first compound 0.1265 µM): 1.11
relative viability ([1]; first compound 0.4 µM): 1.11
relative viability ([1]; first compound 4 µM): 0.798
relative viability ([2]; first compound 0.04 µM): 0.431
relative viability ([2]; first compound 0.1265 µM): 0.445
relative viability ([2]; first compound 0.4 µM): 0.569
relative viability ([2]; first compound 4 µM): 0.612
relative viability ([3]; first compound 0.04 µM): 0.621
relative viability ([3]; first compound 0.1265 µM): 0.594
relative viability ([3]; first compound 0.4 µM): 0.558
relative viability ([3]; first compound 4 µM): 0.59
relative viability ([4]; first compound 0.04 µM): 0.258
relative viability ([4]; first compound 0.1265 µM): 0.279
relative viability ([4]; first compound 0.4 µM): 0.198
relative viability ([4]; first compound 4 µM): 0.257
relative viability ([5]; first compound 0.04 µM): 0.898
relative viability ([5]; first compound 0.1265 µM): 0.93
relative viability ([5]; first compound 0.4 µM): 0.972
relative viability ([5]; first compound 4 µM): 0.953
relative viability ([6]; first compound 0.04 µM): 0.648
relative viability ([6]; first compound 0.1265 µM): 0.591
relative viability ([6]; first compound 0.4 µM): 0.625
relative viability ([6]; first compound 4 µM): 0.608
relative viability ([7]; first compound 0.04 µM): 0.412
relative viability ([7]; first compound 0.1265 µM): 0.44
relative viability ([7]; first compound 0.4 µM): 0.364
relative viability ([7]; first compound 4 µM): 0.347
relative viability ([8]; first compound 0.04 µM): 0.533
relative viability ([8]; first compound 0.1265 µM): 0.605
relative viability ([8]; first compound 0.4 µM): 0.562
relative viability ([8]; first compound 4 µM): 0.587
relative viability ([9]; first compound 0.04 µM): 0.453
relative viability ([9]; first compound 0.1265 µM): 0.427
relative viability ([9]; first compound 0.4 µM): 0.515
relative viability ([9]; first compound 4 µM): 0.43
relative viability ([10]; first compound 0.04 µM): 0.613
relative viability ([10]; first compound 0.1265 µM): 0.484
relative viability ([10]; first compound 0.4 µM): 0.449
relative viability ([10]; first compound 4 µM): 0.488
relative viability ([11]; first compound 0.04 µM): 0.644
relative viability ([11]; first compound 0.1265 µM): 0.661
relative viability ([11]; first compound 0.4 µM): 0.723
relative viability ([11]; first compound 4 µM): 0.654
relative viability ([12]; first compound 0.04 µM): 0.346
relative viability ([12]; first compound 0.1265 µM): 0.336
relative viability ([12]; first compound 0.4 µM): 0.377
relative viability ([12]; first compound 4 µM): 0.341
relative viability ([13]; first compound 0.04 µM): 0.302
relative viability ([13]; first compound 0.1265 µM): 0.368
relative viability ([13]; first compound 0.4 µM): 0.303
relative viability ([13]; first compound 4 µM): 0.317
relative viability ([14]; first compound 0.04 µM): 0.355
relative viability ([14]; first compound 0.1265 µM): 0.362
relative viability ([14]; first compound 0.4 µM): 0.418
relative viability ([14]; first compound 4 µM): 0.382
relative viability ([15]; first compound 0.04 µM): 0.46
relative viability ([15]; first compound 0.1265 µM): 0.472
relative viability ([15]; first compound 0.4 µM): 0.518
relative viability ([15]; first compound 4 µM): 0.492
relative viability ([16]; first compound 0.04 µM): 0.627
relative viability ([16]; first compound 0.1265 µM): 0.51
relative viability ([16]; first compound 0.4 µM): 0.542
relative viability ([16]; first compound 4 µM): 0.441
relative viability ([17]; first compound 0.04 µM): 0.744
relative viability ([17]; first compound 0.1265 µM): 0.743
relative viability ([17]; first compound 0.4 µM): 0.677
relative viability ([17]; first compound 4 µM): 0.669
relative viability ([18]; first compound 0.04 µM): 0.816
relative viability ([18]; first compound 0.1265 µM): 0.818
relative viability ([18]; first compound 0.4 µM): 0.84
relative viability ([18]; first compound 4 µM): 0.791
relative viability ([19]; first compound 0.04 µM): 0.356
relative viability ([19]; first compound 0.1265 µM): 0.368
relative viability ([19]; first compound 0.4 µM): 0.433
relative viability ([19]; first compound 4 µM): 0.446
relative viability ([20]; first compound 0.04 µM): 0.663
relative viability ([20]; first compound 0.1265 µM): 0.689
relative viability ([20]; first compound 0.4 µM): 0.641
relative viability ([20]; first compound 4 µM): 0.724
relative viability ([21]; first compound 0.04 µM): 0.347
relative viability ([21]; first compound 0.1265 µM): 0.266
relative viability ([21]; first compound 0.4 µM): 0.296
relative viability ([21]; first compound 4 µM): 0.334
relative viability ([22]; first compound 0.04 µM): 0.249
relative viability ([22]; first compound 0.1265 µM): 0.222
relative viability ([22]; first compound 0.4 µM): 0.29
relative viability ([22]; first compound 4 µM): 0.328
relative viability ([23]; first compound 0.04 µM): 0.594
relative viability ([23]; first compound 0.1265 µM): 0.522
relative viability ([23]; first compound 0.4 µM): 0.454
relative viability ([23]; first compound 4 µM): 0.717
relative viability ([24]; first compound 0.04 µM): 0.693
relative viability ([24]; first compound 0.1265 µM): 0.695
relative viability ([24]; first compound 0.4 µM): 0.697
relative viability ([24]; first compound 4 µM): 0.737
